The text below walks through data of patent US8273760B2, “Indolo[3,2-c]quinoline compounds” (Kaohsiung Medical University, priority 2008, dated 2012).

Structures can show the parent of a compound that is named as a salt. Where two headings read alike, the source gives them in different places.

The target of assay [1] is telomerase (Homo sapiens, UniProt O14746). Briefly: Telomeric Repeat Amplification Protocol (TRAP) assay, cell-free. Conditions: 0.5 μg total cell extract from H1299 human lung cancer cells, FIG. 1.
Sequence of telomerase (O14746 whole entry): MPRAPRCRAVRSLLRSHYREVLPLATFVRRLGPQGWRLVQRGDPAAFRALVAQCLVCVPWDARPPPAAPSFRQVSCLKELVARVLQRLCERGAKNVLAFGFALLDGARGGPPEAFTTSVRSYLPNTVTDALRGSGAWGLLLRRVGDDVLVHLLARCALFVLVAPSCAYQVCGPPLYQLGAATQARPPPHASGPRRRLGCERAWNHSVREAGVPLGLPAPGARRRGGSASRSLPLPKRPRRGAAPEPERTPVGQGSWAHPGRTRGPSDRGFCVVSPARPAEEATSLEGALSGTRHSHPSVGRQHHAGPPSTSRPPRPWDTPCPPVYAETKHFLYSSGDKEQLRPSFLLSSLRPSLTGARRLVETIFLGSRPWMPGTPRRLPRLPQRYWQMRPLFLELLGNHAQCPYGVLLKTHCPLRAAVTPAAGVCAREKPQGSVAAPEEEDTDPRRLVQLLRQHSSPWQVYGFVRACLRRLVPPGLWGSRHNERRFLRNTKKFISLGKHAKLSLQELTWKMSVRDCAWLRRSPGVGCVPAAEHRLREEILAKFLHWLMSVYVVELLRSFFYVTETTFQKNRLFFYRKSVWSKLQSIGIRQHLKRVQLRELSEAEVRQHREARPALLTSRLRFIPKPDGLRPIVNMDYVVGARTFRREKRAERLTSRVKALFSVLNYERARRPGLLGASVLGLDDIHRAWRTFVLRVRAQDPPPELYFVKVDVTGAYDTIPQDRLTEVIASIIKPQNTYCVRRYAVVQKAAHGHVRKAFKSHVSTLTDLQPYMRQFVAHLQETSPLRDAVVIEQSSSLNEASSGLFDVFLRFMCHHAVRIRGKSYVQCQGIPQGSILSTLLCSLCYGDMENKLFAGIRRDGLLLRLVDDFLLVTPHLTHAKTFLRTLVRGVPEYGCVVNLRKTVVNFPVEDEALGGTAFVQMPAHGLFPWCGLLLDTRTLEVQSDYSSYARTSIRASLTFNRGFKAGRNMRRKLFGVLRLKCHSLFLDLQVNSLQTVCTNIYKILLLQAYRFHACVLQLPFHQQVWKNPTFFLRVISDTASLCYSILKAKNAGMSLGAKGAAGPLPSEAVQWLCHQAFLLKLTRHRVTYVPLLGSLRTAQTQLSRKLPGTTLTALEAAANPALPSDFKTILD
Assay [2] concerns 786-0. In words: In vitro anticancer assay (NCI panel), 786-0. It counts as cell-based. Conditions: Homo sapiens; 786-0, renal cancer. Here is the method: (§1) Selected compounds were evaluated in vitro against the NCI's full panel of 60 cancer cell lines derived from nine cancer cell types, including: leukemia (CCRF-CEM, HL-60 (TB), K-562, MOLT-4, RPMI-8226, and SR); non-small cell lung cancer (A549/ATCC, EKVX, HOP-62, HOP-92, NCI-H226, NCI-H23, NCI-H322M, and NCI-H522); colon cancer (COLO 205, HCC-2998, HCT-116, HCT-15, HT29, KM12, and SW-620); CNS cancer (SF-268, SF-295, SF-539, SNB-19, SNB-75, and U251); melanoma (LOX IMVI, MALME-3M, M14, SK-MEL-2, SK-MEL-28, SK-MEL-5, UACC-62, and UACC-257); ovarian cancer (IGROV1, OVCAR-3, OVCAR-4, OVCAR-5, OVCAR-8, and SK-OV-3); renal cancer (786-0, A498, ACHN, CAKI-1, RXF 393, SN12C, TK-10, and UO-31); prostate cancer (PC-3 and DU-145); and breast cancer (MCF7, MCF7/ADR-RES, MDA-MB-231/ATCC, HS 578T, MDA-MB-435, MDA-N, and T-47D). For each compound, dose-response curves for each cell line were measured with five different drug concentrations, and the concentration causing 50% cell growth inhibition (GI50) compared with the control was calculated. The mean GI50 values of each tested compound for all the 60 tumor cell lines were also calculated.

In assay [3] the test system is ACHN. In words: In vitro anticancer assay (NCI panel), ACHN. As to conditions: Homo sapiens, renal cancer. Format: cell-based. The procedure: as §1
The subject of assay [4] is SF-295. In words: In vitro anticancer assay (NCI panel), SF-295. It counts as cell-based. Conditions: Homo sapiens; SF-295, CNS cancer. Here is the method:
as §1

For assay [5], the system named is MDA-MB-231/ATCC. In words: In vitro anticancer assay (NCI panel), MDA-MB-231/ATCC. It counts as cell-based. Conditions: Homo sapiens, breast cancer. The procedure:
as §1

Assay [6] relates to NCI's full panel of 60 cancer cell lines. Briefly: In vitro anticancer assay, all cell lines of the NCI panel. Format: cell-based, human. As to conditions: mean values of over all cell lines tested, read-out: MG MID (mean GI50). The procedure: as §1
The test system of assay [7] is SR. Briefly: In vitro anticancer assay (NCI panel), SR. It counts as cell-based. As to conditions: Homo sapiens, leukemia. Here is the method: as §1
Assay [8] concerns SK-MEL-2. Briefly: In vitro anticancer assay (NCI panel), SK-MEL-2. Format: cell-based. As to conditions: Homo sapiens; SK-MEL-2, melanoma. Here is the method:
as §1

In assay [9] the test system is DU-145. In words: In vitro anticancer assay (NCI panel), DU-145. Format: cell-based. As to conditions: Homo sapiens; DU-145, prostate cancer. Here is the method: as §1
For assay [10], the system named is HOP-62. In words: In vitro anticancer assay (NCI panel), HOP-62. As to conditions: Homo sapiens; HOP-62, non-small cell lung cancer. Format: cell-based. The procedure:
as §1

Assay [11] concerns SN12C. Briefly: In vitro anticancer assay (NCI panel), SN12C. It counts as cell-based. As to conditions: Homo sapiens, renal cancer. The procedure:
as §1

Assay [12] relates to OVCAR-5. In words: In vitro anticancer assay (NCI panel), OVCAR-5. Format: cell-based. As to conditions: Homo sapiens; OVCAR-5, ovarian cancer. The procedure: as §1
The subject of assay [13] is UACC-62. Briefly: In vitro anticancer assay (NCI panel), UACC-62. It counts as cell-based. As to conditions: Homo sapiens; UACC-62, melanoma. The procedure:
as §1

Assay [14] relates to COLO 205. In words: In vitro anticancer assay (NCI panel), COLO 205. Format: cell-based. Conditions: Homo sapiens; COLO 205, colon cancer. Here is the method: as §1
In assay [15] the test system is HCT-116. Briefly: In vitro anticancer assay (NCI panel), HCT-116. Format: cell-based. As to conditions: Homo sapiens; HCT-116, colon cancer. The procedure:
as §1

The test system of assay [16] is NCI-H460. Briefly: In vitro anticancer assay (NCI panel), NCI-H460. As to conditions: Homo sapiens; NCI-H460, non-small cell lung cancer. It counts as cell-based. Here is the method:
as §1

Assay [17] has as its system MDA-MB-435. Briefly: In vitro anticancer assay (NCI panel), MDA-MB-435. As to conditions: Homo sapiens; MDA-MB-435, breast cancer. It counts as cell-based. Here is the method: as §1
Assay [18] deals with HT29. In words: In vitro anticancer assay (NCI panel), HT29. Format: cell-based. As to conditions: Homo sapiens, HT-29; HT29, colon cancer. The procedure: as §1
Assay [19] deals with LOX IMVI. In words: In vitro anticancer assay (NCI panel), LOX IMVI. It counts as cell-based. As to conditions: Homo sapiens, melanoma. The procedure: as §1
Assay [20] relates to A549/ATCC. Briefly: In vitro anticancer assay (NCI panel), A549/ATCC. Conditions: Homo sapiens, non-small cell lung cancer. Format: cell-based. The procedure: as §1
Assay [21] concerns HL-60 (TB). In words: In vitro anticancer assay (NCI 60 cell line panel), HL-60 (TB). It counts as cell-based. As to conditions: Homo sapiens, leukemia. Here is the method: as §1
For assay [22], the system named is OVCAR-8. Briefly: In vitro anticancer assay (NCI panel), OVCAR-8. Format: cell-based. As to conditions: Homo sapiens; OVCAR-8, ovarian cancer. Here is the method: as §1
Assay [23] deals with SF-268. In words: In vitro anticancer assay (NCI panel), SF-268. Format: cell-based. As to conditions: Homo sapiens; SF-268, CNS cancer. The procedure:
as §1

Assay [24] has as its system K-562. In words: In vitro anticancer assay (NCI panel), K-562. Format: cell-based. Conditions: Homo sapiens, K562; K-562, leukemia. Here is the method:
as §1

Assay [25] relates to PC-3. In words: In vitro anticancer assay (NCI panel), PC-3. It counts as cell-based. Conditions: Homo sapiens; PC-3, prostate cancer. The procedure: as §1
The test system of assay [26] is OVCAR-3. In words: In vitro anticancer assay (NCI panel), OVCAR-3. Conditions: Homo sapiens; OVCAR-3, ovarian cancer. It counts as cell-based. Here is the method: as §1
Assay [27] concerns MCF7. Briefly: In vitro anticancer assay (NCI panel), MCF7. It counts as cell-based. As to conditions: Homo sapiens; MCF7, breast cancer. Here is the method: as §1
Assay [28] has as its system SNB-19. In words: In vitro anticancer assay (NCI panel), SNB-19. It counts as cell-based. Conditions: Homo sapiens; SNB-19, CNS cancer. The procedure:
as §1

For the compound `COc1ccc(CCNc2nc3ccccc3c3[nH]c4ccccc4c23)cc1OC` [Compound 7c, 6-[2-(3,4-dimethoxyphenyl)ethylamino]-11H-indolo[3,2-c]quinoline hydrochloride], in assay [1], the “concentration that completely inhibited telomerase activity” value is listed as “approximately 2 nM”.
Still for that read-out and setting: to “6-[2-(3,4-dihydroxyphenyl)ethylamino]-11 indolo[3,2-c]quinoline hydrochloride [Compound 7b]” belongs “approximately 2 nM”.
A word on the GI50: it is the concentration that inhibits growth by half. Take `NCCCN1CCN(CCCNc2nc3ccccc3c3[nH]c4ccccc4c23)CC1` [Compound 6, {3-[4-(3-Aminopropyl)piperazin-1-yl]propyl}(11H-indolo[3,2-c]quinolin-6-yl)amine hydrochloride]: the GI50 in [2] was 260 nM; in [3], 200 nM; in assay [4], 140 nM; in assay [5], 230 nM; in [6] (Homo sapiens), around 300 nM; in [7], 350 nM. Further, the GI50 is 180 nM in assay [8]; 120 nM in [9]; 240 nM in assay [10]; below 10 nM in [11]; 250 nM in [12]; 210 nM in assay [13]. In addition, the GI50 was determined as 210 nM in assay [14]; 180 nM in [15]; 300 nM in assay [16]; 370 nM in [17]; 140 nM in [18]; 290 nM in [19]. In addition, the GI50 in [20] came out at 200 nM; in assay [21], 420 nM; in [22] it was 40 nM; in [23] it was 310 nM; in assay [24], 70 nM; in assay [25], 350 nM. Also, the results for the GI50 in [26], in assay [27] and in assay [28] were 240 nM, 120 nM and 270 nM, respectively. Further, the “concentration that completely inhibited telomerase activity” value in assay [1] is “approximately 0.02 nM”.
On to `c1ccc2c(c1)nc(NCCN1CCNCC1)c1c3ccccc3[nH]c21` [Compound 5, N-(11H-Indolo[3,2-c]quinolin-6-yl)-2-(piperazin-1-yl)ethanamine], for which the GI50 in assay [2] was 220 nM; in assay [3], 380 nM; in assay [4], 310 nM; in assay [5], 340 nM; in [6] (Homo sapiens) it was around 300 nM; in [6], 350 nM. Moreover, the GI50 stood at 180 nM in [7]; 1060 nM in assay [8]; 160 nM in assay [9]; 400 nM in assay [10]; 80 nM in assay [11]; 540 nM in assay [12]. Moreover, the GI50 came out at 1260 nM in assay [13]; 220 nM in assay [14]; 70 nM in assay [15]; 190 nM in [16]; 630 nM in assay [17]; 120 nM in assay [18]. Further, the GI50 came to 200 nM in assay [19]; 110 nM in assay [20]; 290 nM in assay [21]; 40 nM in assay [22]; 500 nM in assay [23]; 70 nM in [24]. The GI50 in assay [25] is 310 nM; in [26] it was 270 nM; in assay [27], 80 nM; in assay [28], 300 nM. In [1], the “concentration that completely inhibited telomerase activity” value is listed as “approximately 0.02 nM”.
For the compound `Oc1ccc(CCNc2nc3ccccc3c3[nH]c4ccccc4c23)cc1` [Compound 7a, 6-[2-(4-Hydroxyphenyl)ethylamino]-11H-indolo[3,2-c]quinoline hydrochloride], the GI50 stood at 1290 nM in assay [2]; 1270 nM in [3]; 1380 nM in [4]; 1360 nM in assay [5]; 1700 nM in assay [6] (Homo sapiens); 1480 nM in assay [7]. Further, the GI50 in assay [8] was found to be 1730 nM; in [9] it was 1450 nM; in assay [10] it was 1630 nM; in [11], 1270 nM; in [12] it was 2890 nM; in assay [13], 1660 nM. The GI50 in assay [14] was 1180 nM; in assay [15], 1220 nM; in assay [16] it was 1310 nM; in assay [17], 1600 nM; in [18] it was 1420 nM; in [19] it was 1590 nM. In addition, the GI50 in assay [20] was 1330 nM; in assay [21], 2400 nM; in assay [22], 1020 nM; in [23], 1710 nM; in assay [24], 1910 nM; in assay [25], 1630 nM. For the same compound, the 50% growth inhibitory concentration (GI50) in assay [26] was found to be 1600 nM; in [27], 1370 nM; in assay [28], 1830 nM. Moreover, in [1], the “concentration that completely inhibited telomerase activity” value is “approximately 2 nM”.
With `CN(CCCN)CCCNc1nc2ccccc2c2[nH]c3ccccc3c12` [Compound 10, N^1-[3-(11H-Indolo[3,2-c]quinolin-6-ylamino)propyl]-N^1-methylpropane-1,3-diamine hydrochloride], the GI50 is 90 nM in assay [2]; 380 nM in assay [3]; 130 nM in [4]; 170 nM in assay [5]; 180 nM in assay [6] (Homo sapiens); 370 nM in assay [7]. Further, the GI50 in [8] came to 200 nM; in [9], 240 nM; in [10] it was 150 nM; in [11], 70 nM; in assay [12] it was 150 nM; in [13] it was 190 nM. The GI50 in assay [14] was 180 nM; in assay [15], 80 nM; in assay [16], 310 nM; in [17], 190 nM; in assay [18], 150 nM; in assay [19] it was 210 nM. In addition, the GI50 amounted to 80 nM in assay [20]; 90 nM in [21]; 40 nM in [22]; 250 nM in [23]; 40 nM in assay [24]; 320 nM in assay [25]. Besides, the GI50 in assay [26] came to 220 nM; in [27], 50 nM; in assay [28] it was 150 nM.
